The target in one data set is T1, NMDAR2B (Homo sapiens, UniProt Q13224).
T1 construct: expressed in transfected cells; host or cells: HEK cells (membrane extract)
Kind of data set: [3H]MK-801 binding in NMDAR expressing HEK cell membranes (facilitation of NMDAR activation). The data set is classed as biochemical. The following applies: 50 μM glutamate; for EC50: read-out: B: log EC50 (converted); for Emax: 0.25 h, read-out: A: % maximal [3H]MK-801 binding relative to 1 mM glycine. On the procedure:
(§1) Assays were conducted as described by Moskal et al., “GLYX-13: a monoclonal antibody-derived peptide that acts as an N-methyl-D-aspartate receptor modulator,” Neuropharmacology, 49, 1077-87, 2005. These studies were designed to determine if the test compounds act to facilitate NMDAR activation in NMDAR2A, NMDAR2B, NMDAR2C or NMDAR2D expressing HEK cell membranes as measured by increases in [^3H]MK-801 binding.
(§2) In the assay, 300 μg of NMDAR expressing HEK cell membrane extract protein was preincubated for 15 minutes at 25° C. in the presence of saturating concentrations of glutamate (50 μM) and varying concentrations of test compound (1×10^15M−1×10^−7M), or 1 mM glycine. Following the addition of 0.3 μCi of [^3H]MK-801 (22.5 Ci/mmol), reactions were again incubated for 15 minutes at 25° C. (nonequilibrium conditions). Bound and free [^3H]MK-801 were separated via rapid filtration using a Brandel apparatus.
(§3) In analyzing the data, the DPM (disintegrations per minute) of [^3H]MK-801 remaining on the filter were measured for each concentration of test compound or for 1 mM glycine. The DPM values for each concentration of a ligand (N=2) were averaged. The baseline value was determined from the best fit curve of the DPM values modeled using the GraphPad program and the log(agonist) vs. response (three parameters) algorithm was then subtracted from all points in the dataset. The % maximal [^3H]MK-801 binding was then calculated relative to that of 1 mM glycine: all baseline subtracted DPM values were divided by the average value for 1 mM glycine. The EC50 and % maximal activity were then obtained from the best fit curve of the % maximal [^3H]MK-801 binding data modelled using the GraphPad program and the log(agonist) vs. response (three parameters) algorithm.
(§4) The tables below summarize the results for the wild type NMDAR agonists NMDAR2A, NMDAR2B, NMDAR2C, and NMDAR2D, and whether the compound is not an agonist (−), is an agonist (+), or is a strong agonist (++), where column A is based on the % maximal [^3H]MK-801 binding relative to 1 mM glycine (−=0; <100%=+; and >100%=++); and column B is based on log EC50 values (0=−; ≥1×10^−9 M (e.g., −8)=+; and <1×10^−9 M (e.g., −10)=++).

The target in the next data set is T2, NMDAR2A (Homo sapiens, UniProt Q12879).
T2 construct: expressed in transfected cells; host or cells: HEK cells (membrane extract)
T2 sequence (Q12879 23-1464, species assumed, other chains not shown): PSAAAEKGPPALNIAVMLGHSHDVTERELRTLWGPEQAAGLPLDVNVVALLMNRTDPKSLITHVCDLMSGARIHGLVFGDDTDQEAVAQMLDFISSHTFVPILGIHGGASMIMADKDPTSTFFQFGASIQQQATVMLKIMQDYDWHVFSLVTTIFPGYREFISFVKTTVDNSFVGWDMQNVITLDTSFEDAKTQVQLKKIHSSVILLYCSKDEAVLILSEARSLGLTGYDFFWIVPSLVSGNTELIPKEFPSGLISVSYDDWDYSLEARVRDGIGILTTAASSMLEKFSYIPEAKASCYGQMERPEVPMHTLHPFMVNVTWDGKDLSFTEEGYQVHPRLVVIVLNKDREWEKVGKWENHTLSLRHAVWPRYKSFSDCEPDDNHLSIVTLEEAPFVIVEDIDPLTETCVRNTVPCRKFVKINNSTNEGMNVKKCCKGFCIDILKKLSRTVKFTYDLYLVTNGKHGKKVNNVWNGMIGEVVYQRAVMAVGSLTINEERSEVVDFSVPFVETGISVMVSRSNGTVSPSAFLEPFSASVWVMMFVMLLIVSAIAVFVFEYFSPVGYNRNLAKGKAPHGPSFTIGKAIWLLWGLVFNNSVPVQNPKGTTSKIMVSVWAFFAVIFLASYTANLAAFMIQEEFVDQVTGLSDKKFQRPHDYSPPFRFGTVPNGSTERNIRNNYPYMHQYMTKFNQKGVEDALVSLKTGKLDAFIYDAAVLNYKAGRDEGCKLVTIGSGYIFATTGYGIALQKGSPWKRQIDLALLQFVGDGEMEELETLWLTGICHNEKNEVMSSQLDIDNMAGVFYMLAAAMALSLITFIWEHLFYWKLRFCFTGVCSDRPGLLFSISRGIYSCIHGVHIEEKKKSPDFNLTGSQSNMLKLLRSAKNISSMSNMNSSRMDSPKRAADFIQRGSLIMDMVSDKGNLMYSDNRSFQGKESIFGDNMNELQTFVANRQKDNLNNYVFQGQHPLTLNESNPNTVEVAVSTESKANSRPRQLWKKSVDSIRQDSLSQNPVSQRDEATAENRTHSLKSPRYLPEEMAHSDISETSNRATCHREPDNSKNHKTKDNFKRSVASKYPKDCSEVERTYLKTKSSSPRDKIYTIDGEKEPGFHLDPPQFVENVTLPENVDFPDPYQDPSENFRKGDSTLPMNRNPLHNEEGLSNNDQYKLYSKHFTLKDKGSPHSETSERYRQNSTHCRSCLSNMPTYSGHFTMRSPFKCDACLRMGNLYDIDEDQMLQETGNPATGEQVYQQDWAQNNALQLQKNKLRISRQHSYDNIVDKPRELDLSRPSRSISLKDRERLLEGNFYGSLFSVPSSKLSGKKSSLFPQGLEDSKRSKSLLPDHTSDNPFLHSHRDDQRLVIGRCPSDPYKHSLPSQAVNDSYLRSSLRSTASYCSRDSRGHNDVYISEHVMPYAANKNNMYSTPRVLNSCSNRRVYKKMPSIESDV
The data set is described as above. The data set is classed as biochemical. The following applies: 50 μM glutamate; for EC50: read-out: B: log EC50 (converted); for Emax: 0.25 h, read-out: A: % maximal [3H]MK-801 binding relative to 1 mM glycine. As to the method:
as §1, §2, §3, §4

A further data set can be described thus: IV pharmacokinetics. The data set is classed as in vivo, Sprague Dawley rats. The following applies: rat, normal saline (* in 5% NMP, 5% Solutol HS, 90% normal saline); for AUC(0-t) / half-life / C0 / Vd: Sprague-Dawley, in vivo; for C0: read-out: C0; for Vd: read-out: Vss. The source says:
The table below summarizes the results of the IV pharmacokinetics.

A short description of data set [1]: oral pharmacokinetics (plasma, brain, CSF). The class given is in vivo, Sprague Dawley rats. The following applies: rat, per os 10 mg/kg; for AUC(0-t) / bioavailability / Tmax / Cmax: Sprague-Dawley, plasma, po; for Tmax: normal saline (* in 5% NMP, 5% Solutol HS, 90% normal saline), read-out: Tmax; for Cmax: read-out: Cmax.
Method: In another experiment, Sprague Dawley rats were dosed per os using a normal saline formulation containing 10 mg/kg of the compounds identified in the table below (except for the compounds marked with an asterisk (“*”) that were delivered in 5% NMP, 5% Solutol® HS and 90% normal saline formulation). Plasma, brain, and CSF samples were analyzed at various time points over a 24 hour period.

Where two headings read alike, the source gives them in different places.

T1 sequence (Q13224 27-1484, species assumed, other chains not shown): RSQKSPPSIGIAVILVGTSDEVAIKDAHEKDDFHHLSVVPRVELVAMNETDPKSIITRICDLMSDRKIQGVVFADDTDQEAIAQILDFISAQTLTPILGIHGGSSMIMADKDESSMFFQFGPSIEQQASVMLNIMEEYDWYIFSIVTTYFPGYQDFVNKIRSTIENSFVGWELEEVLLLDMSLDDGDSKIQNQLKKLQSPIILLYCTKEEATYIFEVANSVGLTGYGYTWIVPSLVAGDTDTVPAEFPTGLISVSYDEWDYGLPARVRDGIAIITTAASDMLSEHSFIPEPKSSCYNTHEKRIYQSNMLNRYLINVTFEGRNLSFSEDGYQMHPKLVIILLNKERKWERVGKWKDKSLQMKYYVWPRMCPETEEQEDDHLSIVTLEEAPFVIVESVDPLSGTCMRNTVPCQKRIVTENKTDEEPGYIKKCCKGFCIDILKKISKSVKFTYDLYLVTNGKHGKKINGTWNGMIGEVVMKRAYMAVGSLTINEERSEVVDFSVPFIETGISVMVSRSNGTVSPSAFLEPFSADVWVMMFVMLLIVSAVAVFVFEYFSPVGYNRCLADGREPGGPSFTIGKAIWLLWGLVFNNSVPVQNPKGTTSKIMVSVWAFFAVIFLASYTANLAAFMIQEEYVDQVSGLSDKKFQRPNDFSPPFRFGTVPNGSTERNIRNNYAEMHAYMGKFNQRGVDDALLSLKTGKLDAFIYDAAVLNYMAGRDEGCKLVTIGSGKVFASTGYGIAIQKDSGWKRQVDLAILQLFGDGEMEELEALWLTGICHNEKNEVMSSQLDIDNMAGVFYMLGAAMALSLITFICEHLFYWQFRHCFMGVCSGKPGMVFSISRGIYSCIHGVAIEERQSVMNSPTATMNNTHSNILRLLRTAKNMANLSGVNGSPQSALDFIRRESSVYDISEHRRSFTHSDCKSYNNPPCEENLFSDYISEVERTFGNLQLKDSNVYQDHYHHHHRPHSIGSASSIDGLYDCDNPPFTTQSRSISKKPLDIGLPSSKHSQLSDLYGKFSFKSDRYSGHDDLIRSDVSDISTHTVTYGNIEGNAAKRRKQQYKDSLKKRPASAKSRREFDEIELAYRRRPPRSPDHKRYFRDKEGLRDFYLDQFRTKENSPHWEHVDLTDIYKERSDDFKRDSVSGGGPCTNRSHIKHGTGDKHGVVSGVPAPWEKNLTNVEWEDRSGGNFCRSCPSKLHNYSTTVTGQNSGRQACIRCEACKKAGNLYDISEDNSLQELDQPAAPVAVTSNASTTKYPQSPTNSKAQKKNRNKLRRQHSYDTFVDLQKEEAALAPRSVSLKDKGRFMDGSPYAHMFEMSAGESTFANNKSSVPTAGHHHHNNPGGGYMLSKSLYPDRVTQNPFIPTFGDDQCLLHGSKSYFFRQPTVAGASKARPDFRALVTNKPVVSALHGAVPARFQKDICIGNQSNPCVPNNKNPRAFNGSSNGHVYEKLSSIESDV

In the case of `CC1CCC2(CC1)CN(C(CCC(N)=O)C(N)=O)C2=O` (single isomer, unassigned) [BE, 2-(7-methyl-1-oxo-2-azaspiro[3.5]nonan-2-yl)pentanediamide], on NMDAR2B, the half-maximal effective concentration (EC50) was below 1 nM and the Emax is below 100%. Moreover, at NMDAR2A, the “A: % maximal [3H]MK-801 binding relative to 1 mM glycine” value was “− (−=0)”.
Take `CC1CCC2(CC1)CN([C@H](C(N)=O)[C@@H](C)O)C2=O` (mixture of isomers) [Compound AN, (2S,3R)-3-hydroxy-2-(7-methyl-1-oxo-2-azaspiro[3.5]nonan-2-yl)butanamide]: the Emax at NMDAR2B is 0%. Besides, at NMDAR2A, the EC50 was below 1 nM and the Emax is below 100%. Also, in “IV pharmacokinetics” (iv, 2 mg/kg), the AUC(0-t) amounted to 1470 ng·h/mL, the half-life was 19.2 min, the C0 is 3100 ng/mL and the Vd was determined as 0.59 L/kg. Moreover, the CI in “IV pharmacokinetics” (intravenous 2 mg/kg) is 22.44 mL/min/kg. Moreover, in data set [1] (10 mg/kg), the AUC(0-t) came out at 4850 ng·h/mL, the bioavailability came out at 66%, the Tmax worked out at 15 min and the Cmax is 4330 ng/mL. In addition, in data set [1], the “CSF Cmax” value came to 1384.82 ng/mL and the “Brain Cmax” value came out at 1501.76 ng/mL.
As to `COc1ccc(CN2CC3(CCC(OCc4ccccc4)CC3)C2=O)cc1` (single isomer, unassigned) [AE, 7-(benzyloxy)-2-(4-methoxybenzyl)-2-azaspiro[3.5]nonan-1-one], the “A: % maximal [3H]MK-801 binding relative to 1 mM glycine” value at NMDAR2B is listed as “− (−=0)”. Also, on NMDAR2A, the “A: % maximal [3H]MK-801 binding relative to 1 mM glycine” value is on record as “+ (<100%=+)” and the EC50 is below 1 nM.
Take `CC1CCC2(CC1)CN(C(CO)C(=O)O)C2=O` (single isomer, unassigned) [EM, 3-hydroxy-2-(7-methyl-1-oxo-2-azaspiro[3.5]nonan-2-yl)propanoic acid]: the “A: % maximal [3H]MK-801 binding relative to 1 mM glycine” value at NMDAR2B is “− (−=0)”. Further, on NMDAR2A, the EC50 was below 1 nM and the Emax is below 100%.
For `COc1ccc(CN2CC3(CCC(OCc4ccccc4)CC3)C2=O)cc1` (single isomer, unassigned) [AF, 7-(benzyloxy)-2-(4-methoxybenzyl)-2-azaspiro[3.5]nonan-1-one], at NMDAR2B, the “A: % maximal [3H]MK-801 binding relative to 1 mM glycine” value was “+ (<100%=+)” and the EC50 is below 1 nM. Further, the “A: % maximal [3H]MK-801 binding relative to 1 mM glycine” value on NMDAR2A is listed as “− (−=0)”.
As for `CN(Cc1ccccc1)C1CCC2(CC1)CNC2=O` (centres unmarked) [EZ], the “A: % maximal [3H]MK-801 binding relative to 1 mM glycine” value on NMDAR2B and on NMDAR2A was “+ (<100%=+)” in each case. The EC50 at NMDAR2B and on NMDAR2A was below 1 nM in each case.
In the case of `CCN(Cc1ccccc1)C1CCC2(CC1)CNC2=O` (centres unmarked) [FB], at NMDAR2B, the “A: % maximal [3H]MK-801 binding relative to 1 mM glycine” value is “+ (<100%=+)” and the EC50 was below 1 nM. Besides, at NMDAR2A, the “A: % maximal [3H]MK-801 binding relative to 1 mM glycine” value is “+ (<100%=+)” and the EC50 was below 1 nM. Besides, in the data set “IV pharmacokinetics” (intravenous 2 mg/kg), the AUC(0-t) amounted to 782 ng·h/mL, the half-life is 45 min, the C0 worked out at 981 ng/mL and the Vd is 2.33 L/kg. In “IV pharmacokinetics” (intravenous 2 mg/kg), this molecule had a CI of 41.98 mL/min/kg. In data set [1], the bioavailability worked out at 87%, the Tmax stood at 30 min, the exposure AUC(0-t) is 3410 ng·h/mL and the Cmax came out at 1590 ng/mL. For the same molecule, in data set [1], the “CSF Cmax” value came out at 981.8 ng/mL and the “Brain Cmax” value is recorded as 3632.82 ng/mL.
Turning to `CC1CCC2(CC1)CN(C(CO)C(=O)O)C2=O` (single isomer, unassigned) [EN, 3-hydroxy-2-(7-methyl-1-oxo-2-azaspiro[3.5]nonan-2-yl)propanoic acid], on NMDAR2B, the “A: % maximal [3H]MK-801 binding relative to 1 mM glycine” value was “+ (<100%=+)” and the EC50 was below 1 nM. At NMDAR2A, the “A: % maximal [3H]MK-801 binding relative to 1 mM glycine” value was “+ (<100%=+)” and the EC50 is below 1 nM. In addition, in “IV pharmacokinetics” (iv, 2 mg/kg), the AUC(0-t) was 1760 ng·h/mL, the half-life is 440 min, the C0 worked out at 9440 ng/mL and the Vd worked out at 1.16 L/kg. This molecule also registered a CI in the data set “IV pharmacokinetics” (intravenous 2 mg/kg) of 19.38 mL/min/kg. For the same molecule, in data set [1] (10 mg/kg), the exposure AUC(0-t) is 2210 ng·h/mL, the bioavailability came to 25%, the Tmax came out at 15 min and the Cmax came out at 1490 ng/mL. Besides, in data set [1], the “CSF Cmax” value is recorded as 22 ng/mL and the “Brain Cmax” value is on record as 61 ng/mL.
With `O=C1NCC12CCC(OCc1ccccc1)CC2` (centres unmarked) [AJ, 7-(benzyloxy)-2-azaspiro[3.5]nonan-1-one], the Emax at NMDAR2B and at NMDAR2A was 0% in each case.
Consider `CN(Cc1ccccc1)C1CCC2(CC1)CNC2=O` (centres unmarked) [EY], for which, at NMDAR2B, the 50% effective concentration (EC50) is below 1 nM and the Emax is below 100%. For the same molecule, the “A: % maximal [3H]MK-801 binding relative to 1 mM glycine” value on NMDAR2A is given as “− (−=0)”. In addition, in the data set “IV pharmacokinetics” (intravenous 2 mg/kg), the AUC(0-t) is 1210 ng·h/mL, the half-life is 33.6 min, the C0 was 2100 ng/mL and the Vd turned out to be 1.09 L/kg. In addition, the CI in “IV pharmacokinetics” (intravenous 2 mg/kg) came out at 27.44 mL/min/kg. In data set [1], the bioavailability worked out at 48%, the Tmax came out at 30 min, the AUC(0-t) worked out at 2920 ng·h/mL and the Cmax was 1130 ng/mL. For the same molecule, in data set [1], the “CSF Cmax” value was found to be 539.09 ng/mL and the “Brain Cmax” value worked out at 1833.34 ng/mL.
`O=C1NCC12CCC(O)CC2` (centres unmarked) [AK, 7-hydroxy-2-azaspiro[3.5]nonan-1-one]: the “A: % maximal [3H]MK-801 binding relative to 1 mM glycine” value at NMDAR2B is “− (−=0)”. At NMDAR2A, the Emax was determined as 0%.
On to `C[C@@H](O)[C@@H](C(N)=O)N1CC2(CCC(O)CC2)C1=O` (stereo partly drawn) [Compound AM, (2S,3R)-3-hydroxy-2-(7-hydroxy-1-oxo-2-azaspiro[3.5]nonan-2-yl)butanamide], for which the Emax at NMDAR2B and on NMDAR2A was 0% throughout.
On to `CC1CCC2(CC1)CN([C@@H](CCC(=O)O)C(=O)O)C2=O` (stereo partly drawn) [EQ, (S)-2-(7-methyl-1-oxo-2-azaspiro[3.5]nonan-2-yl)pentanedioic acid], for which the Emax on NMDAR2B is 0%. Further, on NMDAR2A, the EC50 was below 1 nM and the Emax was below 100%.
`O=C1N(OCc2ccccc2)CC12CCC(O)CC2` (centres unmarked) [FF]: the “A: % maximal [3H]MK-801 binding relative to 1 mM glycine” value on NMDAR2B and on NMDAR2A was “− (−=0)” in each case.
Take `COc1ccc(CN2CC3(CCC(C)CC3)C2=O)cc1` (centres unmarked) [Compound AC, 2-(4-methoxybenzyl)-7-methyl-2-azaspiro[3.5]nonan-1-one]: the Emax at NMDAR2B and at NMDAR2A was 0% each time.
In the case of `O=C1N(OCc2ccccc2)CC12CCC(O)CC2` (centres unmarked) [FE], the Emax on NMDAR2B came out at 0%. In addition, at NMDAR2A, the “A: % maximal [3H]MK-801 binding relative to 1 mM glycine” value was “+ (<100%=+)” and the concentration giving a half-maximal response (EC50) was below 1 nM.
`CCN(Cc1ccccc1)C1CCC2(CC1)CNC2=O` (centres unmarked) [FA]: the “A: % maximal [3H]MK-801 binding relative to 1 mM glycine” value on NMDAR2B and at NMDAR2A was “− (−=0)” in each case.
